The text below walks through data of ChEMBL document CHEMBL1149980, “Synthesis of rutaecarpine and cytotoxic analogues” (1995).

Holding throughout (assay type): functional
Holding throughout (settings): Homo sapiens

For one assay, the system named is NCI-H460. Description: Tested for in vitro cytotoxicity against non-small cell lung cancer cell line NCI-H460.
The next assay deals with 786-0. The assay can be described thus: Tested for in vitro cytotoxicity against renal cancer cell line 786-0.
For the next assay, the system named is A549. Description: Tested for in vitro cytotoxicity against non-small cell lung cancer cell line A549/ATCC.
In the next assay the test system is OVCAR-4. Description: Tested for in vitro cytotoxicity against ovarian cancer cell line OVCAR-4.
A further assay concerns CCRF-CEM. The assay can be described thus: Tested for in vitro cytotoxicity against leukemia cell line CCRF-CEM.
A further assay relates to Hs-578T. Description: Tested for in vitro cytotoxicity against breast cancer cell line Hs 578.T.

Structures are written as SMILES.

In the case of `COc1ccc2[nH]c3c(c2c1)CCn1c-3nc2ccccc2c1=O`, the GI50 in the assay with NCI-H460, with 786-0, in the assay with A549, in the assay with OVCAR-4, with CCRF-CEM and with Hs-578T was over 25 µM in each case.

On to `COc1ccc2c3c([nH]c2c1)-c1nc2ccccc2c(=O)n1CC3`, for which the GI50 in the assay on NCI-H460 was 1.38 µM; in the assay with 786-0, 0.31 µM; with A549, 0.75 µM; in the assay on OVCAR-4, over 25 µM; in the assay on CCRF-CEM, over 25 µM; in the assay on Hs-578T, 1.59 µM.

With `O=c1c2ccccc2nc2n1CCc1c-2[nH]c2ccccc12` [RUTAECARPINE], the GI50 turned out to be 14.5 µM in the assay on A549, 18.9 µM with OVCAR-4, 18.9 µM with CCRF-CEM and 22.6 µM with Hs-578T.

As to `O=c1c2ccccc2nc2n1CCc1c-2[nH]c2cc3c(cc12)OCO3`, the GI50 in the assay with NCI-H460 is 1.55 µM; with 786-0, 1.08 µM; with A549, over 25 µM; in the assay on OVCAR-4 it was 1.5 µM; in the assay on CCRF-CEM, over 25 µM; with Hs-578T, 5.05 µM.
